Test [1] addresses Beta Secretase enzyme (BACE) (Homo sapiens (Human), UniProt P56817). Nature of the test: In vitro enzymatic BACE FRET assay. The class given is biochemical. Conditions: read-out: BACE1 Enzyme assay IC50.
In test [2] the target is Cathepsin D (Cat D) (Homo sapiens (Human), UniProt P07339). In words: In vitro enzymatic Cathepsin D (Cat D) FRET assay. The class given is biochemical.
In test [3] the test system is Abeta 40. In words: In vivo inhibition of beta-secretase: Abeta 40 reduction in CSF and brain of the rat. Particulars: after 4 hrs; for % reduction of rat CSF levels at 10 pmk / % reduction of rat brain levels at 10 mpk: 10 mpk.
From the text: In Vivo Inhibition of Beta-Secretase
Several animal models, including mouse, rat, dog, and monkey, may be used to screen for inhibition of beta-secretase activity in vivo following administration of a test compound sample. […] A separate group of animals receive 2% hydroxypropyl methylcellulose, 1% Tween80 alone, containing no test compound, and serve as a vehicle-control group. At the end of the test period, animals are sacrificed and brain tissues, plasma or cerebrospinal fluid are collected. […] Homogenates are centrifuged at 355,000 g, 4° C. for 30 minutes. CSF or brain supernatants are then analyzed for the presence of A-beta peptide by specific sandwich ELISA assays based on ECL (Electrochemiluminescence) technology. For example, rat Abeta40 is measured using biotinylated-4G8 (Signet) as a capture antibody and Fab40 (an in-house antibody specific to the C-terminal of Abeta40) as a detection antibody.
Actual vehicles used: Oral: 2% HPMC, 1% Tween80, pH 2.2
The target of test [4] is BACE (Homo sapiens (Human), UniProt P56817). Nature of the test: In vitro BACE cell-based assay (Aβ40 in conditioned medium, sandwich ELISA). (In an ELISA, binding on a coated surface is turned into a signal by an enzyme label.)

The structures appear in SMILES notation. Structures can show the parent of a compound that is named as a salt. Where two headings read alike, the source gives them in different places.

Sequence of Cathepsin D (Cat D) (P07339 65-412, species assumed): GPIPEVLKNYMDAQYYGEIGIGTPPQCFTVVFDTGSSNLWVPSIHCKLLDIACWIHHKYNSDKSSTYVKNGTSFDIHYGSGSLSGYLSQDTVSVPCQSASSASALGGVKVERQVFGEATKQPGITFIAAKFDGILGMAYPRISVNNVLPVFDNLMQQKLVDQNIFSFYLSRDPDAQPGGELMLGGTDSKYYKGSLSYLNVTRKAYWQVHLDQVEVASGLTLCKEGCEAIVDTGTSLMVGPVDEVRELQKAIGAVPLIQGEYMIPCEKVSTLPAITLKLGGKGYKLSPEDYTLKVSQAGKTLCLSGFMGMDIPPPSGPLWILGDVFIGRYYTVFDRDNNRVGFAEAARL
Sequence of BACE (P56817 46-501, species assumed): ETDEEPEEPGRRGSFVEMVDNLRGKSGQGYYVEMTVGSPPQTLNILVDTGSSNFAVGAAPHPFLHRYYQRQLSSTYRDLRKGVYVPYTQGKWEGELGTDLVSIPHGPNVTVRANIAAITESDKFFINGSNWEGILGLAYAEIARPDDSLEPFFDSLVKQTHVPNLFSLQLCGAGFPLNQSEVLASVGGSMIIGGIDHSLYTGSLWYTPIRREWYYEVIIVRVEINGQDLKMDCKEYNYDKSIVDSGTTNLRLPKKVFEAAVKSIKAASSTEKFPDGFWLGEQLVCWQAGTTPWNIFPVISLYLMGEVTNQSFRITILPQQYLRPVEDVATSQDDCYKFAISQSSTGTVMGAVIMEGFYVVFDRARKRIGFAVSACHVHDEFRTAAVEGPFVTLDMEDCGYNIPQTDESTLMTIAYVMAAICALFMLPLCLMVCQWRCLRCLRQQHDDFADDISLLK
Sequence of Beta Secretase enzyme (BACE) (P56817 46-501): as the sequence (P56817 46-501, species assumed) above

On to `Cc1cc(Cl)cnc1C(=O)Nc1ccc(F)c([C@@]2(C(F)F)N=C(N)O[C@@H]3C[C@@H]32)c1` [Example 43, N-(3-((1R,5S,6R)-3-amino-5-(difluoromethyl)-2-oxa-4-azabicyclo[4.1.0]hept-3-en-5-yl)-4-fluorophenyl)-5-chloro-3-methylpicolinamide], for which the IC50 in test [1] is 22.5 nM; in test [2] (Cat D FRET assay, first procedure, read-out: Cat D IC50), over 400 µM; in test [2] (read-out: CatD IC50), 596 µM; in test [4], 0.0314 µM. The “% reduction of rat CSF levels at 10 pmk” value in test [3] (Abeta 40 in rat CSF) was 70%. Further, the “% reduction of rat brain levels at 10 mpk” value (shortened to “% reduction … at 10 mpk”) in test [3] (Abeta 40 in rat brain) worked out at 59%.

Take `Cc1cc(C#N)cnc1C(=O)Nc1ccc(F)c([C@@]2(C(F)F)N=C(N)O[C@@H]3C[C@@H]32)c1` [Example 44, N-(3-((1R,5S,6R)-3-amino-5-(difluoromethyl)-2-oxa-4-azabicyclo[4.1.0]hept-3-en-5-yl)-4-fluorophenyl)-5-cyano-3-methylpicolinamide]: the results for the IC50 in test [1], in test [2] (read-out: CatD IC50) and in test [4] were 14.2 nM, 376 µM and 0.017 µM, respectively. The “% reduction of rat CSF levels (3 mpk)” value in test [3] (Abeta 40 in rat CSF, 3 mpk) is 69 (3 mpk) %. Also, the “% reduction of rat CSF levels at 10 pmk” value in test [3] (Abeta 40 in rat CSF) came out at 80%. For the same compound, the “% reduction of rat brain levels (3 mpk)” value in test [3] (Abeta 40 in rat brain, 3 mpk) is listed as 52 (3 mpk) %. The “% reduction … at 10 mpk” value in test [3] (Abeta 40 in rat brain) was determined as 73%.

With `COc1cc(C#N)cnc1C(=O)Nc1ccc(F)c([C@@]2(C(F)F)N=C(N)O[C@@H]3C[C@@H]32)c1` [Example 45, N-(3-((1R,5S,6R)-3-amino-5-(difluoromethyl)-2-oxa-4-azabicyclo[4.1.0]hept-3-en-5-yl)-4-fluorophenyl)-5-cyano-3-methoxypicolinamide], the IC50 is 55.5 nM in test [1], 3450 µM in test [2] (read-out: CatD IC50) and 0.0372 µM in test [4]. The “% reduction of rat CSF levels at 10 pmk” value in test [3] (Abeta 40 in rat CSF) turned out to be 31%. Further, the “% reduction … at 10 mpk” value in test [3] (Abeta 40 in rat brain) stood at 6%.

As for `COc1cnc(C(=O)Nc2ccc(F)c([C@@]3(C(F)F)N=C(N)O[C@@H]4C[C@@H]43)c2)c(Cl)c1` [Example 70, N-(3-((1R,5S,6R)-3-amino-5-(difluoromethyl)-2-oxa-4-azabicyclo[4.1.0]hept-3-en-5-yl)-4-fluorophenyl)-3-chloro-5-methoxypicolinamide], the IC50 in test [1] came out at 56.8 nM; in test [2] (read-out: CatD IC50), 379 µM; in test [4], 0.0386 µM. Also, the “% reduction of rat CSF levels at 10 pmk” value in test [3] (Abeta 40 in rat CSF) amounted to 65%. Besides, the “% reduction … at 10 mpk” value in test [3] (Abeta 40 in rat brain) turned out to be 51%.

In the case of `NC1=N[C@@](c2cc(NC(=O)c3ccc(Br)cn3)ccc2F)(C(F)F)[C@H]2C[C@H]2O1` [Example 74, N-(3-((1R,5S,6R)-3-amino-5-(difluoromethyl)-2-oxa-4-azabicyclo[4.1.0]hept-3-en-5-yl)-4-fluorophenyl)-5-bromopicolinamide], the IC50 in test [1] is 24.7 nM; in test [2] (read-out: CatD IC50), 282 µM; in test [4], 0.0181 µM. Further, in test [3] (Abeta 40 in rat CSF), the “% reduction of rat CSF levels at 10 pmk” value was determined as 56%. Besides, in test [3] (Abeta 40 in rat brain), the “% reduction … at 10 mpk” value is given as 46%.

`NC1=N[C@@](c2cc(NC(=O)c3ccc(Cl)cn3)ccc2F)(C(F)F)[C@H]2C[C@H]2O1` [Example 76, N-(3-((1R,5S,6R)-3-amino-5-(difluoromethyl)-2-oxa-4-azabicyclo[4.1.0]hept-3-en-5-yl)-4-fluorophenyl)-5-chloropicolinamide]: the half-inhibitory concentration (IC50) is 26.6 nM in test [1], 684 µM in test [2] (read-out: CatD IC50) and 0.0302 µM in test [4]. Further, the “% reduction of rat CSF levels at 10 pmk” value in test [3] (Abeta 40 in rat CSF) amounted to 64%. The “% reduction … at 10 mpk” value in test [3] (Abeta 40 in rat brain) was 60%.

On to `NC1=N[C@](CF)(c2cc(NC(=O)c3cnc(OCC(F)(F)F)cn3)cc(Cl)c2F)[C@H]2C[C@H]2O1` [Example 90, N-(3-((1R,5S,6R)-3-amino-5-(fluoromethyl)-2-oxa-4-azabicyclo[4.1.0]hept-3-en-5-yl)-5-chloro-4-fluorophenyl)-5-(2,2,2-trifluoroethoxy)pyrazine-2-carboxamide], for which the IC50 in test [1] stood at 13.6 nM; in test [2] (read-out: CatD IC50) it was 913 µM; in test [4], 0.0213 µM. The “% reduction of rat CSF levels at 10 pmk” value in test [3] (Abeta 40 in rat CSF) came out at 48%. In test [3] (Abeta 40 in rat brain), the “% reduction … at 10 mpk” value was 31%.

As to `C#CCOc1cnc(C(=O)Nc2ccc(F)c([C@@]3(C(F)F)N=C(N)O[C@@H]4C[C@@H]43)c2)cn1` [Example 95, N-(3-(((1R,5S,6R)-3-amino-5-(difluoromethyl)-2-oxa-4-azabicyclo[4.1.0]hept-3-en-5-yl)-4-fluorophenyl)-5-(prop-2-yn-1-yloxy)pyrazine-2-carboxamide trifluoroacetate], the IC50 worked out at 3.5 nM in test [1], 143 µM in test [2] (read-out: CatD IC50) and 0.008 µM in test [4]. For the same compound, the “% reduction of rat CSF levels at 10 pmk” value in test [3] (Abeta 40 in rat CSF) was determined as 82%. The “% reduction … at 10 mpk” value in test [3] (Abeta 40 in rat brain) worked out at 77%.

With `CC#CCOc1cnc(C(=O)Nc2ccc(F)c([C@@]3(C(F)F)N=C(N)O[C@@H]4C[C@@H]43)c2)cn1` [Example 96, N-(3-((1R,5S,6R)-3-amino-5-(difluoromethyl)-2-oxa-4-azabicyclo[4.1.0]hept-3-en-5-yl)-4-fluorophenyl)-5-(but-2-yn-1-yloxy)pyrazine-2-carboxamide trifluoroacetate], the IC50 was found to be 1 nM in test [1], 467 µM in test [2] (read-out: CatD IC50) and 0.0033 µM in test [4]. The “% reduction of rat CSF levels at 10 pmk” value in test [3] (Abeta 40 in rat CSF) turned out to be 24%. Further, the “% reduction … at 10 mpk” value in test [3] (Abeta 40 in rat brain) turned out to be 1%.

As to `NC1=N[C@@](c2cc(NC(=O)c3ccc(Cl)cn3)ccc2Cl)(C(F)F)[C@H]2C[C@H]2O1` [Example 99, N-(3-((1R,5S,6R)-3-amino-5-(difluoromethyl)-2-oxa-4-azabicyclo[4.1.0]hept-3-en-5-yl)-4-chlorophenyl)-5-chloropicolinamide], the IC50 worked out at 22.7 nM in test [1], 1050 µM in test [2] (read-out: CatD IC50) and 0.0195 µM in test [4]. In test [3] (Abeta 40 in rat CSF), the “% reduction of rat CSF levels at 10 pmk” value is 63%. For the same compound, in test [3] (Abeta 40 in rat brain), the “% reduction … at 10 mpk” value came to 58%.

With `NC1=N[C@](CF)(c2cc(NC(=O)c3ccc(Cl)cn3)ccc2F)[C@H]2C[C@H]2O1` [Example 117, N-(3-((1R,5S,6R)-3-amino-5-(fluoromethyl)-2-oxa-4-azabicyclo[4.1.0]hept-3-en-5-yl)-4-fluorophenyl)-5-chloropicolinamide], the values for the IC50 in test [1], in test [2] (read-out: CatD IC50) and in test [4] were 21.1 nM, 472 µM and 0.0053 µM, respectively. The “% reduction of rat CSF levels at 10 pmk” value in test [3] (Abeta 40 in rat CSF) amounted to 78%. Moreover, the “% reduction … at 10 mpk” value in test [3] (Abeta 40 in rat brain) is 71%.

As to `N#Cc1cnc(C(=O)Nc2ccc(Cl)c([C@@]3(CF)N=C(N)O[C@@H]4C[C@@H]43)c2)c(Cl)c1` [Example 127], the results for the IC50 in test [1], in test [2] (read-out: CatD IC50) and in test [4] were 39.5 nM, 997 µM and 0.0078 µM, respectively. Moreover, the “% reduction of rat CSF levels at 10 pmk” value in test [3] (Abeta 40 in rat CSF) is 67%. Besides, in test [3] (Abeta 40 in rat brain), the “% reduction … at 10 mpk” value amounted to 50%.

As for `COc1ccc(C(=O)Nc2ccc(F)c([C@@]3(C(F)F)N=C(N)O[C@@H]4C[C@@H]43)c2)nc1` [Example 130, N-(3-((1R,5S,6R)-3-amino-5-(difluoromethyl)-2-oxa-4-azabicyclo[4.1.0]hept-3-en-5-yl)-4-fluorophenyl)-5-methoxypicolinamide], the IC50 in test [1] worked out at 84.5 nM; in test [2] (read-out: CatD IC50), 988 µM; in test [4], 0.0586 µM. Further, the “% reduction of rat CSF levels at 10 pmk” value in test [3] (Abeta 40 in rat CSF) turned out to be 49%. Further, in test [3] (Abeta 40 in rat brain), the “% reduction … at 10 mpk” value is recorded as 23%.

Turning to `NC1=N[C@@](c2cc(NC(=O)c3cnc(OCc4ncco4)cn3)ccc2F)(C(F)F)[C@H]2C[C@H]2O1` [Example 167, N-(3-((1R,5S,6R)-3-amino-5-(difluoromethyl)-2-oxa-4-azabicyclo[4.1.0]hept-3-en-5-yl)-4-fluorophenyl)-5-(oxazol-2-ylmethoxy)pyrazine-2-carboxamide], the IC50 in test [1] was found to be 12.4 nM; in test [2] (read-out: CatD IC50), 767 µM; in test [4], 0.0103 µM. Moreover, in test [3] (Abeta 40 in rat CSF), the “% reduction of rat CSF levels at 10 pmk” value is 60%. Besides, the “% reduction … at 10 mpk” value in test [3] (Abeta 40 in rat brain) was 41%.

Take `NC1=N[C@@](c2cc(NC(=O)c3cnc(OCc4cocn4)cn3)ccc2F)(C(F)F)[C@H]2C[C@H]2O1` [Example 174, N-(3-((1R,5S,6R)-3-amino-5-(difluoromethyl)-2-oxa-4-azabicyclo[4.1.0]hept-3-en-5-yl)-4-fluorophenyl)-5-(oxazol-4-ylmethoxy)pyrazine-2-carboxamide]: the IC50 in test [1] came out at 23.3 nM; in test [2] (read-out: CatD IC50), 925 µM; in test [4] it was 0.0186 µM. For the same compound, the “% reduction of rat CSF levels at 10 pmk” value in test [3] (Abeta 40 in rat CSF) is 46%. The “% reduction … at 10 mpk” value in test [3] (Abeta 40 in rat brain) stood at 26%.

In the case of `N#Cc1ccc(C(=O)Nc2ccc(F)c([C@@]3(CF)N=C(N)O[C@@H]4C[C@@H]43)c2)nc1` [Example 192, N-(3-((1R,5S,6R)-3-amino-5-(fluoromethyl)-2-oxa-4-azabicyclo[4.1.0]hept-3-en-5-yl)-4-fluorophenyl)-5-cyanopicolinamide], the values for the IC50 in test [1], in test [2] (read-out: CatD IC50) and in test [4] were 25.6 nM, 591 µM and 0.0079 µM, respectively. Besides, in test [3] (Abeta 40 in rat CSF), the “% reduction of rat CSF levels at 10 pmk” value is recorded as 81%. The “% reduction … at 10 mpk” value in test [3] (Abeta 40 in rat brain) was determined as 71%.

Take `NC1=N[C@@](c2cc(NC(=O)c3ncc(Br)cn3)ccc2F)(C(F)F)[C@H]2C[C@H]2O1` [Example 267, N-(3-((1R,5S,6R)-3-amino-5-(difluoromethyl)-2-oxa-4-azabicyclo[4.1.0]hept-3-en-5-yl)-4-fluorophenyl)-5-bromopyrimidine-2-carboxamide]: in test [3] (Abeta 40 in rat CSF), the “% reduction of rat CSF levels at 10 pmk” value is recorded as −1%. Further, the “% reduction … at 10 mpk” value in test [3] (Abeta 40 in rat brain) stood at 11%. The compound further showed an IC50 in test [4] of 0.015 µM.

Take `Cc1cc(Cl)cnc1C(=O)Nc1cc(C)c(F)c([C@@]2(C(F)F)N=C(N)O[C@@H]3C[C@@H]32)c1` [Example 303, N-(3-((1R,5S,6R)-3-amino-5-(difluoromethyl)-2-oxa-4-azabicyclo[4.1.0]hept-3-en-5-yl)-4-fluoro-5-methylphenyl)-5-chloro-3-methylpicolinamide]: the IC50 in test [2] (read-out: CatD IC50) is 335 µM. The “% reduction of rat CSF levels at 10 pmk” value in test [3] (Abeta 40 in rat CSF) turned out to be 57%. Besides, the “% reduction … at 10 mpk” value in test [3] (Abeta 40 in rat brain) is recorded as 50%.

One may read the IC50 as the concentration that gives 50% inhibition.

The values above are taken from patent US9085576B2 (AMGEN INC., priority 2013, dated 2015).
